Where “and” joins values, the source holds several entries; their conditions need not be identical. Equal values may be shown once. Read-outs that look alike come from different tables or passages of the source.
What was measured:
CDK16 = biological target: T1, CDK16 (Homo sapiens, UniProt Q00536); assay: DSF; assay type: binding; settings: 10 μM compound
T1 construct: purchased in-house DSF panel (SGC Frankfurt)
Outline: (§1)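 Differential scanning fluorimetry follows unfolding of the protein through fluorescence of a dye that depends on folding state. The value is ΔTm, the melting-temperature shift between compound-free and compound-bound protein. Duplicate measurements.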

CDK2 = biological target: T2, CDK2 (Homo sapiens, UniProt P24941); assay: DSF; assay type: binding; settings: 10 μM compound
T2 construct: purchased in-house DSF panel (SGC Frankfurt)
Outline: as §1

BMPR2 = biological target: T3, BMPR2 (Homo sapiens, UniProt Q13873); assay: DSF; assay type: binding
T3 construct: purchased in-house DSF panel (SGC Frankfurt)
T3 sequence (Q13873 27-1038): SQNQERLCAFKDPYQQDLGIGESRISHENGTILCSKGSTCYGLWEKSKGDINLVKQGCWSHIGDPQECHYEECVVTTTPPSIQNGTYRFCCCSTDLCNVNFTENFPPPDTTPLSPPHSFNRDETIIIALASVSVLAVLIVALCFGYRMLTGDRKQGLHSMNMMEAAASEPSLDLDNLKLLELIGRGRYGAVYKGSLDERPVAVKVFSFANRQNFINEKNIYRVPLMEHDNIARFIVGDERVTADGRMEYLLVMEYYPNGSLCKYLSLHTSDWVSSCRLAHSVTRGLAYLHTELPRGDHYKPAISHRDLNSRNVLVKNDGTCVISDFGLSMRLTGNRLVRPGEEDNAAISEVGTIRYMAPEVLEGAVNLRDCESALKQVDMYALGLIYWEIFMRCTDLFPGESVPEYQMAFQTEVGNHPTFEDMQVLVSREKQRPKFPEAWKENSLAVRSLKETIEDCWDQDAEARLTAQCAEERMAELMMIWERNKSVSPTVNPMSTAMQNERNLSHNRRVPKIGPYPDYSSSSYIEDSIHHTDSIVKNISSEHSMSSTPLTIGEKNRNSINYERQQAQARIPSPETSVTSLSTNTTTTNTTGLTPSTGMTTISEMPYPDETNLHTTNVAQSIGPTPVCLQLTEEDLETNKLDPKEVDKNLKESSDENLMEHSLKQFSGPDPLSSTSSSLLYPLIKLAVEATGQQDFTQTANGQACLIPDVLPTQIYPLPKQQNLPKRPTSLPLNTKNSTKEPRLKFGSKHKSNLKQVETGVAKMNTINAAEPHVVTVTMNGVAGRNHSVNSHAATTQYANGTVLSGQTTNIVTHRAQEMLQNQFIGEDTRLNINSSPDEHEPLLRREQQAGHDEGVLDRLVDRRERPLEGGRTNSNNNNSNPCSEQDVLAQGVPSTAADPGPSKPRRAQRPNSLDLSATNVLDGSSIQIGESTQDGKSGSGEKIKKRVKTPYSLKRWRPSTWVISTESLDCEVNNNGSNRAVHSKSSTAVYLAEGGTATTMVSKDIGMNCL
Experimental: (§2) Recombinant protein kinase domains with a concentration of 2 μM were mixed with a 10 μM compound solution in DMSO, 20 mM HEPES, pH 7.5, and 500 mM NaCl. SYPRO Orange (5000×, Invitrogen) was added as a fluorescence probe (1 µl per mL). Subsequently, temperature-dependent protein unfolding profiles were measured, using the QuantStudio™ 5 realtime PCR machine (Thermo Fisher, Waltham, MA, USA). […] The temperature was raised with a step rate of 3 °C per minute. Data points were analyzed with the internal software (Thermal Shift SoftwareTM Version 1.4, Thermo Fisher) using the Boltzmann equation to determine the inflection point of the transition curve [56]. Differences in melting temperature are given as ΔTm values in °C. Measurements were performed in duplicates.

BRD4 = biological target: T4, BRD4 (Homo sapiens, UniProt O60885); assay: DSF; assay type: binding
T4 construct: purchased in-house DSF panel (SGC Frankfurt)

GPRK5 = biological target: T5, GPRK5 (Homo sapiens, UniProt P34947); assay: DSF; assay type: binding
T5 construct: purchased in-house DSF panel (SGC Frankfurt)
T5 sequence (P34947 whole entry): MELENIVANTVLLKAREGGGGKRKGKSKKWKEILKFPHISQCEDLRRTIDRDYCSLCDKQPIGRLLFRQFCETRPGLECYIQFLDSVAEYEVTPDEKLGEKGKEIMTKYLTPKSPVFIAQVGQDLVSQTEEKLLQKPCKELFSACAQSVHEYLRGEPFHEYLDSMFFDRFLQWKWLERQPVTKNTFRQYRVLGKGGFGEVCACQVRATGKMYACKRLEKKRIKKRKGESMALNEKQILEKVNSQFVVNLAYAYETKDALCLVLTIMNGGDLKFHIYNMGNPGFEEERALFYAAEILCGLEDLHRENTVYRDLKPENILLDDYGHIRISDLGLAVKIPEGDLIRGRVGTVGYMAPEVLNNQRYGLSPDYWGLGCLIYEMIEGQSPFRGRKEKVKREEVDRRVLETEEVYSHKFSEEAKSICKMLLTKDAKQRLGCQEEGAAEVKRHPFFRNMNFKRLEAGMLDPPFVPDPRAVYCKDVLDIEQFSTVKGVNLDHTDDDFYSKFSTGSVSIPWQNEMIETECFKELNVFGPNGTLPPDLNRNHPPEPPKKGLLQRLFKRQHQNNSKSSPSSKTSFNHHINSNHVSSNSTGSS
Experimental: as §2

MAPK9 = biological target: T6, MAPK9 (Homo sapiens, UniProt P45984); assay: DSF; assay type: binding;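 also: compound tested at 10 µM with 2 µM protein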
T6 construct: purchased in-house DSF panel (SGC Frankfurt)
T6 sequence (P45984 1-364): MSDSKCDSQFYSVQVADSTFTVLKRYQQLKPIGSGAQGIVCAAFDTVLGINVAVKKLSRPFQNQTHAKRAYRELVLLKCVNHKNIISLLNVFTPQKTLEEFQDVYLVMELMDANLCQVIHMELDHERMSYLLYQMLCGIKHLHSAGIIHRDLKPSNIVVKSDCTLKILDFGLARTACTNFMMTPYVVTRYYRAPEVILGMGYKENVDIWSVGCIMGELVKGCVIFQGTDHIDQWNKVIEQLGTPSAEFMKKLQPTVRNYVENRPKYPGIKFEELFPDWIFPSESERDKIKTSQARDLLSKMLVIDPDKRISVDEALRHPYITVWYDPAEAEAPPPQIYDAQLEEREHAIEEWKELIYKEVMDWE
Experimental: as §2

MST3 = biological target: T7, MST3 (Homo sapiens, UniProt Q9Y6E0); assay: DSF; assay type: binding
T7 construct: purchased in-house DSF panel (SGC Frankfurt)
T7 sequence (Q9Y6E0 4-301): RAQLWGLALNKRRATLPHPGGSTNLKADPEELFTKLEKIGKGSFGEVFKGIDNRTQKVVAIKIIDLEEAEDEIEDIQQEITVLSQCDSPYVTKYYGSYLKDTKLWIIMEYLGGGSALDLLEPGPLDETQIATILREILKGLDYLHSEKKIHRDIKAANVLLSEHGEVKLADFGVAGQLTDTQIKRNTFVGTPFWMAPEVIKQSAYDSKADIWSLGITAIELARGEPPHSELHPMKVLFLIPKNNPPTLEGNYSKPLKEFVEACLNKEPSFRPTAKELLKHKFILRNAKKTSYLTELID
Experimental: as §2

PIM3 = biological target: T8, PIM3 (Homo sapiens, UniProt Q86V86); assay: DSF; assay type: binding;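 also: compound tested at 10 µM with 2 µM protein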
T8 construct: purchased in-house DSF panel (SGC Frankfurt)
Experimental: as §2

TAF1 = assay: DSF; assay type: binding;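 also: compound tested at 10 µM with 2 µM protein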
Experimental: as §2

CDK16/Cyclin Y = biological target: T9, CDK16/Cyclin Y (Homo sapiens, UniProt Q00536); assay: NanoBRET; assay type: cell-based
T9 construct: Full-length kinases were obtained as plasmids cloned in frame with a terminal NanoLuc-fusion; CS1810C178 (CCNY); host or cells: HEK293T
T9 sequence (Q00536 whole entry, the tested form may be a part): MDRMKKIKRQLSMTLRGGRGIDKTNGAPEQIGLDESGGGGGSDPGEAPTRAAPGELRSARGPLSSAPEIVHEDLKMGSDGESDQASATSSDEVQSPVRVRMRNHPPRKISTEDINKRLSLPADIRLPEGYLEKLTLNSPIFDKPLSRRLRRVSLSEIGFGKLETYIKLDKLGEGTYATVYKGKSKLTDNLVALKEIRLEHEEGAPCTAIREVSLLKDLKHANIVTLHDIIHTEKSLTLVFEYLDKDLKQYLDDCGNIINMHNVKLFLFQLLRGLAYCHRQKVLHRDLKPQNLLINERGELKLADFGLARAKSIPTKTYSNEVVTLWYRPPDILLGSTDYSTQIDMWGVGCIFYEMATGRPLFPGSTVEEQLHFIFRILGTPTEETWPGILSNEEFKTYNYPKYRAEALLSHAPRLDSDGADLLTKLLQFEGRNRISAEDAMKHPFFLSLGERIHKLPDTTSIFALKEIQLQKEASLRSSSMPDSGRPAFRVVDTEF
T9 sequence (Q8ND76 2-341 partner limits assumed): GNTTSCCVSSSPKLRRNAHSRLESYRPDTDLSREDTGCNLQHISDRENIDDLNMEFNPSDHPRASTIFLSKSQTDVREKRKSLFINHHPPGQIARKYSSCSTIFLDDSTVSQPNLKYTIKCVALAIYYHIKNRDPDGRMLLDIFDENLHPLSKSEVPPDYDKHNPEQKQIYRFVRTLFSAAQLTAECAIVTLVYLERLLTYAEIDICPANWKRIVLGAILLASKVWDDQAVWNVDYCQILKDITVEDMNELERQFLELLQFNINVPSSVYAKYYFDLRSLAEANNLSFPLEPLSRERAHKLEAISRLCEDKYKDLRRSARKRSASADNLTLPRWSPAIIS
Outline: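 HEK293T cells transiently expressing full-length NanoLuc-fused kinase for 20 h, treated with serially diluted inhibitor plus tracer at its KD,app. Equilibrated 2 h at 37 °C/5% CO2 before reading BRET (450/610 nm). EC50 from tracer displacement by normalized 3-parameter fit.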

FGFR3 = biological target: T10, FGFR3 (Homo sapiens, UniProt P22607); assay: DSF; assay type: binding
T10 construct: purchased in-house DSF panel (SGC Frankfurt)
T10 sequence (P22607 455-768): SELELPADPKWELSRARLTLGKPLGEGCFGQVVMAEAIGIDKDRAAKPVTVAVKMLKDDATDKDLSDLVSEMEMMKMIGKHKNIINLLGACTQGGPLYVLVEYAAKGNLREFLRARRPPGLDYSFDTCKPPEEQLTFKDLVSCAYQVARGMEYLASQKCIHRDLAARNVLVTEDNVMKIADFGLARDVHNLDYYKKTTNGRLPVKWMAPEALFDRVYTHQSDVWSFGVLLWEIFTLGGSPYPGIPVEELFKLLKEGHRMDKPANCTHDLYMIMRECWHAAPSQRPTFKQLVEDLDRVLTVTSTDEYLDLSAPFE
Experimental: as §2

[1] = Figure 7, 11-point dose-response in duplicates, read-out: NanoBRET EC50 ± SEM against CDK16

T1 sequence (Q00536 163-478): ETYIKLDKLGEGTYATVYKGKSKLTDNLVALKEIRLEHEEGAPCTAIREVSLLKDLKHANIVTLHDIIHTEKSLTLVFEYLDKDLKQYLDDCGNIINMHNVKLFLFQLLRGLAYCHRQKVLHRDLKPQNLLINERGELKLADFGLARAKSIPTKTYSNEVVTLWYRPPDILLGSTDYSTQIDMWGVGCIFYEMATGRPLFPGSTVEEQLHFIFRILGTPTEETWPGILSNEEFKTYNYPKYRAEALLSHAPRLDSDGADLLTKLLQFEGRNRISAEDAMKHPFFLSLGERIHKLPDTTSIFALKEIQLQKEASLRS

CC(C)OC(=O)c1cc(Nc2ccnc(NCc3ccc(NC(=O)OC(C)(C)C)cc3)n2)n[nH]1 [42d, isopropyl 3-((2-((4-((tert-butoxycarbonyl)amino)benzyl)amino)pyrimidin-4-yl)amino)-1H-pyrazole-5-carboxylate]
ΔTm at 10 µM (CDK16): 8.4 °C | ΔTm at 10 µM (CDK2): 3 °C | ΔTm BMPR2 (BMPR2): 0.9 °C | ΔTm BRD4 (BRD4): -2.1 °C | ΔTm GPRK5 (GPRK5): -1.3 °C | ΔTm MAPK9 (MAPK9): -0.7 °C | ΔTm MST3 (MST3): 0.8 °C | ΔTm PIM3 (PIM3): -1.1 °C | ΔTm TAF1 (TAF1): 0.5 °C | EC50 (CDK16/Cyclin Y; [1]): 0.044 µM

N#CCc1ccc(Nc2nccc(Nc3cc(C4CC4)[nH]n3)n2)cc1 [compound 1, reference compound]
ΔTm at 10 µM (CDK16): 10.3 °C | ΔTm at 10 µM (CDK2): 15.2 °C | ΔTm BMPR2 (BMPR2): 9.2 °C | ΔTm BRD4 (BRD4): 1.3 °C | ΔTm FGFR3 (FGFR3): 9.8 °C | ΔTm GPRK5 (GPRK5): 5.2 °C | ΔTm MAPK9 (MAPK9): 6.5 °C | ΔTm MST3 (MST3): 9.3 °C | ΔTm PIM3 (PIM3): 3.8 °C | ΔTm TAF1 (TAF1): 0.1 °C | EC50 (CDK16/Cyclin Y; CDK family profiling, Table S5, read-out: NanoBRET EC50 ± SEM CDK16/Cyclin Y): 0.0146 ± 0.0055 µM

COC(=O)c1cc(Nc2ccnc(NCCOCCNC(=O)OC(C)(C)C)n2)[nH]n1 [21d, methyl 5-((2-((2-(2-((tert-butoxycarbonyl)amino)ethoxy)ethyl)amino)pyrimidin-4-yl)amino)-1H-pyrazole-3-carboxylate]
ΔTm at 10 µM (CDK16): 4.3 °C | ΔTm at 10 µM (CDK2): 1.9 °C | ΔTm BMPR2 (BMPR2): 0.7 °C | ΔTm BRD4 (BRD4): 0.7 °C | ΔTm FGFR3 (FGFR3): 0.6 °C | ΔTm GPRK5 (GPRK5): 0.2 °C | ΔTm MAPK9 (MAPK9): 1.1 °C | ΔTm MST3 (MST3): -0.3 °C | ΔTm PIM3 (PIM3): 0.0 °C | ΔTm TAF1 (TAF1): 0.0 °C | EC50 (CDK16/Cyclin Y; [1]): 1.37 ± 0.306 µM

CC(C)(C)OC(=O)Nc1ccc(CNc2nccc(Nc3cc(C(=O)OC(C)(C)C)[nH]n3)n2)cc1 [43d, tert-butyl 3-((2-((4-((tert-butoxycarbonyl)amino)benzyl)amino)pyrimidin-4-yl)amino)-1H-pyrazole-5-carboxylate]
ΔTm at 10 µM (CDK16): 9.2 °C | ΔTm at 10 µM (CDK2): 3.2 °C | ΔTm BMPR2 (BMPR2): 1.4 °C | ΔTm BRD4 (BRD4): -1.5 °C | ΔTm GPRK5 (GPRK5): -1.4 °C | ΔTm MAPK9 (MAPK9): -1.4 °C | ΔTm MST3 (MST3): -0.3 °C | ΔTm PIM3 (PIM3): -1.6 °C | ΔTm TAF1 (TAF1): 0.0 °C | EC50 (CDK16/Cyclin Y; [1]): 0.033 µM and 0.0334 µM

COC(=O)c1cc(Nc2ccnc(NCc3ccc(NC(=O)OC(C)(C)C)cc3)n2)[nH]n1 [21i, methyl 5-((2-((4-((tert-butoxycarbonyl)amino)benzyl)amino)pyrimidin-4-yl)amino)-1H-pyrazole-3-carboxylate]
ΔTm at 10 µM (CDK16): 6.5 °C | ΔTm at 10 µM (CDK2): 3.3 °C | ΔTm BMPR2 (BMPR2): 1.1 °C | ΔTm BRD4 (BRD4): 1.0 °C | ΔTm FGFR3 (FGFR3): 1.2 °C | ΔTm GPRK5 (GPRK5): 0.7 °C | ΔTm MAPK9 (MAPK9): 1.7 °C | ΔTm MST3 (MST3): 0.1 °C | ΔTm PIM3 (PIM3): -0.4 °C | ΔTm TAF1 (TAF1): 0.2 °C | EC50 (CDK16/Cyclin Y; [1]): 0.38 µM

— article PMC9736855, “Discovery of 3-Amino-1H-pyrazole-Based Kinase Inhibitors to Illuminate the Understudied PCTAIRE Family” (International Journal of Molecular Sciences, 2022)
